Here are results for one molecule from US20030073850A1, “4-Imidazole derivatives of benzyl and restricted benzyl sulfonamides, sulfamides, ureas, carbamates, and amides and their use” (priority 1998, published 2003).

What is called melting point is the temperature, or range, at which the solid turns liquid.

One series deals with anesthetized dogs. The series is described as follows: Urethral pressure profile in anesthetized dogs. In kind it is in vivo, dog. The settings on record: increasing iv doses, FIG. 1. As to the method:
Dogs instrumented and anesthetized as decribed above were placed in left lateral recumbency and a dual pressure sensor catheter (SPC-771, Millar Instruments, Houston, Tex.) was inserted into the urethra and advanced into the bladder. The proximal pressure sensor was interfaced to a M12 computerized data acquisition system for the measurement of lower urinary tract pressures. At a resting intravesical pressure of approximately 5 cm of H2O, urethral pressure was measured from the sensor as the catheter was withdrawn using a modified syringe pump (Model 22, Harvard Apparatus, South Natick, Mass.) at its maximal rate of 0.83 mm/sec. Measurement from the proximal sensor allowed easy reinsertion as the distal 5 cm of the catheter remains in the urethra after the total profile has been obtained. Three resting urethral pressure profiles were obtained at 5 minute intervals before dosing, then a single profile was initiated 30 sec after each increasing iv dose during the time corresponding to the maximum arterial pressure effects of that dose. The increase in arterial pressure seen after each agonist dose was allowed to return to baseline before the next dose was given.

The molecule `CS(=O)(=O)Nc1cccc2c1CCCC2c1c[nH]cn1.Cl` (centres unmarked) [Example 8, N-[5-(1H-imidazol-4-yl)-5,6,7,8-tetrahydro-1-naphthalenyl]methanesulfonamide, Hydrochloride] registered a melting point of 113 to 114 °C. Besides, the urethral pressure profile entry in the series on anesthetized dogs is given as “corresponding increases in the urethral pressure”.
